Test results as given in PMC11752888 (Frontiers in Microbiology, 2025).

Each molecule was assayed against T1, JTY_0672 (Mycobacterium tuberculosis, UniProt P96941) (assay: not given).
T1 construct: gene Rv0653c
T1 sequence (P96941 entry or part of it): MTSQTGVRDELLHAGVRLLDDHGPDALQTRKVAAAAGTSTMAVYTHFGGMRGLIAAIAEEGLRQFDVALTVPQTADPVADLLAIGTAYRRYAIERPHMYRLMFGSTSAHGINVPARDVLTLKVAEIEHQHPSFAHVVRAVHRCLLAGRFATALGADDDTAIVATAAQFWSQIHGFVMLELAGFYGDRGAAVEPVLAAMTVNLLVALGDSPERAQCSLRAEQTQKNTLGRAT

`N[C@@H](CC(=O)O)C(=O)O` [Asp] and `N[C@@H](CCC(=O)O)C(=O)O` [Glu] are the same in “concentration influencing DNA binding” value: 20 mM for the first, 20 mM for the second.

First: N[C@@H](CS)C(=O)O [Cys]
Second: N[C@@H](Cc1cnc[nH]1)C(=O)O [His]
The “concentration influencing DNA binding” value of the first is 10-fold lower: 4 mM for the first, 40 mM for the second.

First: Cc1ncc(C[n+]2csc(CCO)c2C)c(N)n1 [VB1]
Second: O=C1O[C@H]([C@@H](O)CO)C(O)=C1O [VC]
The “concentration influencing DNA binding” value of the first is 2-fold higher: 8 mM for the first, 4 mM for the second.

In the case of `O=C(O)c1cccnc1` [VB3], the “concentration influencing DNA binding” value is reported as 8 mM.

These molecules were tested on JTY_0672 (TetR family transcriptional regulator) (Mycobacterium bovis BCG Tokyo 172) (assay: BLI).

First: ATTCATGGTCAGCGCCTTCCCCGGTGATCCGGATTATCTGCAACCGTCAG (double strand) [JTY_3148 promoter, 50 bp WT C13]
Second: JTY_3148 promoter PCR fragment (biotin)
The Kd of the first is 2.3-fold higher: 5.03 µM for the first, 2.2 µM for the second.
